Results reported in patent US10471046B2, “Method for treating, preventing, or reducing the risk of skin infection” (Melinta Subsidiary Corp., priority 2014, dated 2019).
≈ marks a conversion by molar mass, not a printed value. Where two headings read alike, the source gives them in different places.

Test system: S. aureus
Assay: Minimum inhibitory concentrations (MICs) for S. aureus of exemplary compounds (Table 2)
Type: cell-based
Settings: for MIC: Staphylococcus aureus, read-out: MICs
Procedure, shortened: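 MICs (μg/mL) against S. aureus come from microtiter-tray dilution susceptibility testing per NCCLS M7-A5, comparing growth with and without compound.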

[1] = minimum inhibitory concentrations for S. aureus

Structure (SMILES) | MIC [1] [µg/mL] | also measured
CC(=O)NC[C@H]1CN(c2ccc(-c3ccc(Cn4cncn4)cc3)c(F)c2)C(=O)O1 [Compound 1037, N-[3-(2-Fluoro-4′-[1,2,4]triazol-1-ylmethyl-biphenyl-4-yl)-2-oxo-oxazolidin-5-(S)-ylmethyl]-acetamide] | 0.5 (≈ 1.22 µM) | 
CC(=O)NC[C@H]1CN(c2ccc(-c3ccc(CNNC(=O)c4snnc4C)cc3)c(F)c2)C(=O)O1 [Compound 4271, N-(3-{2-Fluoro-4′-[N′-(4-methyl-[1,2,3]thiadiazole-carbonyl)-hydrazinomethyl]-biphenyl-4-yl}-2-oxo-oxazolidin-5-(S)-ylmethyl)-acetamide] | 0.25 (≈ 0.501 µM) | 
CC(=O)NC[C@H]1CN(c2ccc(-c3ccc(CN/C(=N\O)c4ccncc4)cc3)c(F)c2)C(=O)O1 [Compound 4285, N-[3-(2-Fluoro-4′-{[(N-hydroxy-pyridine-4-carboximidoyl)-amino]-methyl}-biphenyl-4-yl)-2-oxo-oxazolidin-5-(S)-ylmethyl]-acetamide] | 8 (≈ 16.8 µM) | 
CC(=O)NC[C@H]1CN(c2ccc(-c3ccc(CN4CC[C@@H](O)C4)cc3)c(F)c2)C(=O)O1 [Compound 1088, N-{3-[2-Fluoro-4′-(3-(R)-hydroxy-pyrrolidin-1-ylmethyl)-biphenyl-4-yl]-2-oxo-oxazolidin-5-(S)-ylmethyl}-acetamide] | 4 (≈ 9.36 µM) | 
CC(=O)NC[C@H]1CN(c2ccc(-c3ccc(Cc4nc(=O)o[nH]4)cc3)c(F)c2)C(=O)O1 [Compound 1016, N-{3-[2-Fluoro-4′-(5-(S)-oxo-2,5-(S)-dihydro-[1,2,4]oxadiazol-3-ylmethyl)-biphenyl-4-yl]-2-oxo-oxazolidin-5-(S)-ylmethyl}-acetamide] |  | MIC: 4 µg/mL (≈ 9.38 µM)
O=C1O[C@@H](Cn2ccnn2)CN1c1ccc(-c2ccc(CNCc3cnn[nH]3)cc2)c(F)c1 [Compound 4268, 3-(2-Fluoro-4′-{[(3H-[1,2,3]triazol-4-ylmethyl)-amino]-methyl}-biphenyl-4-yl)-5-(R)-[1,2,3]triazol-1-ylmethyl-oxazolidin-2-one] | 0.25 (≈ 0.557 µM) | 
CC(=O)NC[C@H]1CN(c2ccc(-c3ccc(C(CO)NCc4csnn4)cc3)c(F)c2)C(=O)O1 (mixture of isomers) [Compound 4172, N-[3-(2-Fluoro-4′-{2-hydroxy-1-[([1,2,3]thiadiazol-4-(R/S)-ylmethyl)-amino]-ethyl}-biphenyl-4-yl)-2-oxo-oxazolidin-5-(S)-ylmethyl]-acetamide] |  | MICs [1]: 8 µg/mL
CNc1ncnc2c1ncn2Cc1ccc(-c2ccc(N3C[C@H](CNC(C)=O)OC3=O)cc2F)cc1 [Compound 1106, N-{3-[2-Fluoro-4′-(6-methylamino-purin-9-ylmethyl)-biphenyl-4-yl]-2-oxo-oxazolidin-5-(S)-ylmethyl}-acetamide] | 1 (≈ 2.04 µM) | 
CC(=O)NC[C@H]1CN(c2ccc(-c3ccc(CNCc4ccncc4)c(F)c3)c(F)c2)C(=O)O1 [Compound 4155, N-[3-(2,3′-Difluoro-4′-{[(pyridin-4-ylmethyl)-amino]-methyl}-biphenyl-4-yl)-2-oxo-oxazolidin-5-(S)-ylmethyl]-acetamide] | 2 (≈ 4.29 µM) | 
CC(=O)NC[C@H]1CN(c2ccc(-c3ccc(CN4CC(C#N)C4)cc3)c(F)c2)C(=O)O1 [Compound 1022, N-{3-[4′-(3-Cyano-azetidin-1-ylmethyl)-2-fluoro-biphenyl-4-yl]-2-oxo-oxazolidin-5-(S)-ylmethyl}-acetamide] |  | MIC: 0.25 µg/mL (≈ 0.592 µM)
CC(=O)NC[C@H]1CN(c2ccc(-c3ccc(CNCc4cn(C)c5ccccc45)cc3)c(F)c2)C(=O)O1 [Compound 4218, N-[3-(2-Fluoro-4′-{[(1-methyl-1H-indol-3-ylmethyl)-amino]-methyl}-biphenyl-4-yl)-2-oxo-oxazolidin-5-(S)-ylmethyl]-acetamide] | 2 (≈ 4 µM) | 
CC(=O)NC[C@H]1CN(c2ccc(-c3ccc(CNCc4nc(C)no4)cc3)c(F)c2)C(=O)O1 [Compound 4140, N-[3-(2-Fluoro-4′-{[(3-methyl-[1,2,4]oxadiazol-5-ylmethyl)-amino]-methyl}-biphenyl-4-yl)-2-oxo-oxazolidin-5-(S)-ylmethyl]-acetamide] | 2 (≈ 4.41 µM) | 
CC(=O)NC[C@H]1CN(c2ccc(-c3ccc(CNCCCN4CCCC4=O)cc3)c(F)c2)C(=O)O1 [Compound 4156, N-[3-(2-Fluoro-4′-{[3-(2-oxo-pyrrolidin-1-yl)-propylamino]-methyl}-biphenyl-4-yl)-2-oxo-oxazolidin-5-(S)-ylmethyl]-acetamide] | 16 (≈ 33.2 µM) | 

Second part, led by results:

MIC [1] [µg/mL] | Structure (SMILES) | also measured
4 (≈ 7.85 µM) | CC(=O)NC[C@H]1CN(c2ccc(-c3ccc(CN(C)Cc4c(C)nc(O)nc4O)cc3)c(F)c2)C(=O)O1 [Compound 4036, N-[3-(4′-{[(2,4-Dihydroxy-6-methyl-pyrimidin-5-ylmethyl)-methyl-amino]-methyl}-2-fluoro-biphenyl-4-yl)-2-oxo-oxazolidin-5-(S)-ylmethyl]-acetamide] | 
8 (≈ 17.6 µM) | CC(=O)NC[C@H]1CN(c2ccc(-c3cccc(CNCc4csnn4)c3)c(F)c2)C(=O)O1 [Compound 4166, N-[3-(2-Fluoro-3′-{[([1,2,3]thiadiazol-4-ylmethyl)-amino]-methyl}-biphenyl-4-yl)-2-oxo-oxazolidin-5-(S)-ylmethyl]-acetamide] | 
2 (≈ 4.58 µM) | CC(=O)NC[C@H]1CN(c2ccc(-c3ccc(CNCc4ccc[nH]4)cc3)c(F)c2)C(=O)O1 [Compound 4048, N-[3-(2-Fluoro-4′-{[(1H-pyrrol-2-ylmethyl)-amino]-methyl}-biphenyl-4-yl)-2-oxo-oxazolidin-5-(S)-ylmethyl]-acetamide] | 
2 (≈ 4.54 µM) | CC(=O)NC[C@H]1CN(c2ccc(-c3ccc(CNNC4=NCCN4)cc3)c(F)c2)C(=O)O1 [Compound 2049, N-(3-{4′-[N′-(4,5-Dihydro-1H-imidazol-2-yl)-hydrazinomethyl]-2-fluoro-biphenyl-4-yl}-2-oxo-oxazolidin-5-(S)-ylmethyl)-acetamide] | 
16 (≈ 32.4 µM) | CC(=O)NC[C@H]1CN(c2ccc(-c3ccc(NC(=O)NCCCn4ccnc4)cc3)c(F)c2)C(=O)O1 [Compound 6001, N-(3-{2-Fluoro-4′-[3-(3-imidazol-1-yl-propyl)-ureido]-biphenyl-4-yl}-2-oxo-oxazolidin-5-(S)-ylmethyl)-acetamide] | 
4 (≈ 8.82 µM) | CC(=O)NC[C@H]1CN(c2ccc(-c3ccc(CNCc4ccsc4)cc3)c(F)c2)C(=O)O1 [Compound 4086, N-[3-(2-Fluoro-4′-{[(thiophen-3-ylmethyl)-amino]-methyl}-biphenyl-4-yl)-2-oxo-oxazolidin-5-(S)-ylmethyl]-acetamide] | 
2 (≈ 4.42 µM) | CC(=O)NC[C@H]1CN(c2ccc(-c3ccc(CNC(=O)[C@@H]4C=CCN4)cc3)c(F)c2)C(=O)O1 [Compound 4306, 2,5-Dihydro-1H-pyrrole-2-(S)-carboxylic acid {4′-[5-(S)-(acetylamino-methyl)-2-oxo-oxazolidin-3-yl]-2′-fluoro-biphenyl-4-ylmethyl}-amide] | 
0.25 (≈ 0.597 µM) | O=C1O[C@@H](Cn2ccnn2)CN1c1ccc(-c2ccc(Cn3ccnc3)cc2)c(F)c1 [Compound 1084, 3-(2-Fluoro-4′-imidazol-1-ylmethyl-biphenyl-4-yl)-5-(R)-[1,2,3]triazol-1-ylmethyl-oxazolidin-2-one] | 
8 (≈ 16.1 µM) | CC(=O)NC[C@H]1CN(c2ccc(-c3ccc(Cn4cc(CNC(=O)CN)nn4)cc3)c(F)c2)C(=O)O1 [Compound 1014, N-(1-{4′-[5-(S)-(Acetylamino-methyl)-2-oxo-oxazolidin-3-yl]-2′-fluoro-biphenyl-4-ylmethyl}-1H-[1,2,3]triazol-4-ylmethyl)-2-amino-acetamide] | 
1 (≈ 2.13 µM) | CC(=O)NC[C@H]1CN(c2ccc(-c3ccc(C(=O)NCc4nccs4)nc3)c(F)c2)C(=O)O1 [Compound 4189, 5-{4-[5-(S)-(Acetylamino-methyl)-2-oxo-oxazolidin-3-yl]-2-fluoro-phenyl}-pyridine-2-carboxylic acid (thiazol-2-ylmethyl)-amide] | 
1 (≈ 2.28 µM) | CC(=O)NC[C@H]1CN(c2ccc(-c3ccc(CNCc4cnco4)cc3)c(F)c2)C(=O)O1 [Compound 4208, N-[3-(2-Fluoro-4′-{[(oxazol-5-ylmethyl)-amino]-methyl}-biphenyl-4-yl)-2-oxo-oxazolidin-5-(S)-ylmethyl]-acetamide] | 
4 (≈ 9.12 µM) | CC(=O)NC[C@H]1CN(c2ccc(-c3ccc(CNCc4ccoc4)cn3)c(F)c2)C(=O)O1 [Compound 4053, N-{3-[3-Fluoro-4-(5-{[(furan-3-ylmethyl)-amino]-methyl}-pyridin-2-yl)-phenyl]-2-oxo-oxazolidin-5-(S)-ylmethyl}-acetamide] | 
0.5 (≈ 1.07 µM) | CC(=O)NC[C@H]1CN(c2ccc(-c3ccc(CNCc4cccnc4F)cc3)c(F)c2)C(=O)O1 [Compound 4257, N-[3-(2-Fluoro-4′-{[(2-fluoro-pyridin-3-ylmethyl)-amino]-methyl}-biphenyl-4-yl)-2-oxo-oxazolidin-5-(S)-ylmethyl]-acetamide] | 
2 (≈ 4.04 µM) | CO/N=C(\CNCc1cnoc1)c1ccc(-c2ccc(N3C[C@H](CNC(C)=O)OC3=O)cc2F)cc1 [Compound 4254, N-[3-(2-Fluoro-4′-{2-[(isoxazol-4-ylmethyl)-amino]-1-methoxyimino-ethyl}-biphenyl-4-yl)-2-oxo-oxazolidin-5-(S)-ylmethyl]-acetamide] | 
8 (≈ 14.8 µM) | CC(=O)NC[C@H]1CN(c2ccc(-c3ccc(CNC(=O)C4CCN4C(=O)OC(C)(C)C)cc3)c(F)c2)C(=O)O1 (stereo partly drawn) [Compound 4295, 2-({4′-[5-(S)-(Acetylamino-methyl)-2-oxo-oxazolidin-3-yl]-2′-fluoro-biphenyl-4-ylmethyl}-carbamoyl)-azetidine-1-carboxylic acid tert-butyl ester] | 
1 (≈ 2.07 µM) | CC(=O)NC[C@H]1CN(c2ccc(-c3ccc(CNCc4ccc([N+](=O)[O-])o4)cc3)c(F)c2)C(=O)O1 [Compound 4069, N-[3-(2-Fluoro-4′-{[(5-nitro-furan-2-ylmethyl)-amino]-methyl}-biphenyl-4-yl)-2-oxo-oxazolidin-5-(S)-ylmethyl]-acetamide] | 
128 (≈ 229 µM) | CC(=O)NC[C@H]1CN(c2ccc(-c3ccc(C(NC(=O)OCc4ccccc4)c4nn[nH]n4)cc3)c(F)c2)C(=O)O1 (mixture of isomers) [Compound 1039, [{4′-[5-(S)-(Acetylamino-methyl)-2-oxo-oxazolidin-3-yl]-2′-fluoro-biphenyl-4-yl}-(2H-tetrazol-5-(R/S)-yl)-methyl]-carbamic acid benzyl ester] | 
